The first data set concerns Human umbilical endothelial cells (HUVEC). The data set can be described thus: Inhibition of VEGF165-stimulated HUVEC proliferation (3H-thymidine incorporation). It counts as cell-based. The following applies: HUVEC proliferation stimulated with 5 ng/ml VEGF165 and 10 μg/ml heparin, 76 h + 16 h 3H-thymidine. The method, then:
Human umbilical endothelial cells (HUVEC) were cultivated in IMDM (Gibco BRL), supplemented with 10% foetal calf serum (FBS) (Sigma), 50 μM of β-mercaptoethanol (Fluka), standard antibiotics, 15 μg/ml of endothelial cell growth factor (ECGS, Collaborative Biomedical Products) and 100 μg/ml of heparin (Sigma) on gelatine-coated culture dishes (0.2% gelatine, Sigma) at 37° C., under 5% CO2 in a water-saturated atmosphere.
In order to investigate the inhibitory activity of the compounds according to the invention the cells were “starved” for 16 hours, i.e. kept in culture medium without growth factors (ECGS+heparin). The cells were detached from the culture dishes using trypsin/EDTA and washed once in serum-containing medium. Then they were seeded out in amounts of 2.5×10^3 cells per well.
The proliferation of the cells was stimulated with 5 ng/ml of VEGF165 (vascular endothelial growth factor; H. Weich, GBF Braunschweig) and 10 μg/ml of heparin. As a control, 6 wells in each dish were not stimulated.
The compounds according to the invention were dissolved in 100% dimethylsulphoxide and added to the cultures in various dilutions as triple measurements, the maximum dimethyl sulphoxide concentration being 0.3%.
The cells were incubated for 76 hours at 37° C., then for a further 16 hours ^3H-thymidine (0.1 μCi/well, Amersham) was added in order to determine the DNA synthesis. Then the radioactively labelled cells were immobilised on filter mats and the radioactivity incorporated was measured in a β-counter. In order to determine the inhibitory activity of the compounds according to the invention the mean value of the non-stimulated cells was subtracted from the mean value of the factor-stimulated cells (in the presence or absence of the compounds according to the invention).
The relative cell proliferation was calculated as a percentage of the control (HUVEC without inhibitor) and the concentration of active substance which inhibits the proliferation of the cells by 50% (IC50) was determined.
For orientation: Dividing cells build labelled thymidine or BrdU into new DNA.
Take `COc1cc2c(cc1OC)/C(=C(/Nc1ccc(CN(C)Cc3ccccc3)cc1)c1ccccc1)C(=O)N2` [1 (3), 3-(Z)-(1-{4-[(N-benzyl-N-methyl-amino)-methyl)-anilino}-1-phenyl-methylidene)-5,6-dimethoxy-2-indolinone]: the IC50 worked out at 270 nM.

Turning to `COc1cc2c(cc1OC)/C(=C(/Nc1ccc(N(C)C(=O)CN(C)C)cc1)c1ccccc1)C(=O)N2` [1 (8), 3-(Z)-{1-[4-(N-dimethylaminomethylcarbonyl-N-methyl-amino)-anilino]-1-phenyl-methylidene}-5,6-dimethoxy-2-indolinone], the IC50 stood at 50 nM.

As for `COc1cc2c(cc1OC)/C(=C(/Nc1ccc(N(CCN(C)C)C(C)=O)cc1)c1ccccc1)C(=O)N2` [1 (17), 3-(Z)-(1-{4-[N-acetyl-N-(2-dimethylamino-ethyl)-amino]-anilino}-1-phenyl-methylidene)-5,6-dimethoxy-2-indolinone], the IC50 worked out at 40 nM.

Take `COc1cc2c(cc1OC)/C(=C(/Nc1ccc(N(CCCN(C)C)C(C)=O)cc1)c1ccccc1)C(=O)N2` [1 (18), 3-(Z)-(1-{4-[N-acetyl-N-(3-dimethylamino-propyl)-amino]-anilino}-1-phenyl-methylidene)-5,6-dimethoxy-2-indolinone]: the IC50 was 40 nM.

As to `CC/C(Nc1ccc(N(C)C(=O)CN(C)C)cc1)=C1/C(=O)Nc2cc(OC)c(OC)cc21` [1 (50), 3-(Z)-{1-[4-(N-dimethylaminomethylcarbonyl-N-methylamino)-anilino]-1-ethyl-methylidene}-5,6-dimethoxy-2-indolinone], the concentration for half-maximal inhibition (IC50) worked out at 830 nM.

Regarding `COc1cc2c(cc1OC)/C(=C(/Nc1ccc(CN(C)C)cc1)c1ccccc1)C(=O)N2` [Example 1 (6), 3-(Z)-(1-(4-(dimethylaminomethyl)-anilino]-1-phenyl-methylidene}-5,6-dimethoxy-2-indolinone], the concentration for half-maximal inhibition (IC50) was 20 nM.

Consider `COc1cc2c(cc1OC)/C(=C(/Nc1ccc(CN3CCCCC3)cc1)c1ccccc1)C(=O)N2` [Example 1, 3-(Z)-{1-[4-(piperidin-1-yl-methyl)-anilino]-1-phenyl-methylidene}-5,6-dimethoxy-2-indolinone], for which the IC50 was found to be 30 nM.

For the compound `COc1cc2c(cc1OC)/C(=C(/Nc1ccc(CCN3CCC(C(=O)N(C)C)CC3)cc1)c1ccccc1)C(=O)N2` [Example 3, 3-(Z)-(1-{4-[2-(4-dimethylcarbamoyl-piperidin-1-yl)-ethyl]-anilino}-1-phenyl-methylidene)-5,6-dimethoxy-2-indolinone], the IC50 was determined as 50 nM.

On to `Nc1ccc2c(c1)NC(=O)/C2=C(\Nc1ccc(CN2CCCCC2)cc1)c1ccccc1` [Example 4, 6-amino-3-(Z)-{1-[4-(piperidin-1-yl-methyl)-anilino]-1-phenyl-methylidene}-2-indolinone], for which the IC50 was determined as 40 nM.

Tested on in another data set: not listed separately
The experiment in a line: Tolerance test on mice (oral LD50). The following applies: mouse, in vivo, read-out: approximate oral LD50. As for the experimental part:
In addition the compound of Example 1 (6) was tested on mice for its tolerance. The approximate oral LD50 for this compound is over 1,000 mg/kg. The compounds of general formula I are therefore well tolerated.
`COc1cc2c(cc1OC)/C(=C(/Nc1ccc(CN(C)C)cc1)c1ccccc1)C(=O)N2` [Example 1 (6), 3-(Z)-(1-(4-(dimethylaminomethyl)-anilino]-1-phenyl-methylidene}-5,6-dimethoxy-2-indolinone]: the LD50 was over 1000 mg/kg.

One may read the IC50 as the concentration that inhibits the measured activity by half. As a reminder, the LD50 is the dose expected to kill half of the subjects tested.

These data come from patent US6794395B1, “Substituted indolinones, their manufacture and their use as medicaments” (Boehringer Ingelheim Pharma GmbH & Co. KG, priority 1999, dated 2004).
